Laboratory results as given in patent US20180303807A1, “ANDROGEN RECEPTOR LIGANDS” (DUKE UNIVERSITY, priority 2015, published 2018).

Test system: AR
Experiment: Real-time PCR of AR target gene transcription in LNCaP-AR (AR overexpressing) cells, CRPC model
Assay type: cell-based
Design: key to B5 = Relative antagonist activity (plus 0.1 nM R1881) of test compounds (20 μM) in AR overexpressing LNCaP cells (NKX3.1 AR target gene) / B7 = Relative antagonist activity (plus 0.1 nM R1881) of test compounds (20 μM) in AR overexpressing LNCaP cells (PSA AR target gene): a score of 1 indicates higher antagonist efficacy (highly desired activity) than benchmark compound enzalutamide; a score of 2 indicates equal antagonist efficacy to enzalutamide (desirable); a score of 3 indicates antagonist efficacy between enzalutamide and bicalutamide (less desirable activity); a score of 4 indicates antagonist efficacy equal to bicalutamide (liability); a score of 5 indicates antagonist efficacy worse than bicalutamide (liability); key to B4 = Relative agonist activity (no R1881) of test compounds (20 μM) in AR overexpressing LNCaP cells (NKX3.1 AR target gene) / B6 Relative agonist activity (no R1881) of test compounds (20 μM) in AR overexpressing LNCaP cells (PSA AR target gene): a score of 1 indicates less agonism (highly desired activity) than benchmark compound enzalutamide; a score of 2 indicates equal agonism to enzalutamide (desirable); a score of 3 indicates agonism between enzalutamide and bicalutamide (less desirable activity); a score of 4 indicates equal agonism to bicalutamide (liability); a score of 5 indicates higher agonism than bicalutamide (liability)
Conditions: 20 μM, score vs enzalutamide/bicalutamide; for B4 = Relative agonist activity (no R1881) of test compounds (20 μM) in AR overexpressing LNCaP cells (NKX3.1 AR target gene): no R1881, NKX3.1 gene; for B5 = Relative antagonist activity (plus 0.1 nM R1881) of test compounds (20 μM) in AR overexpressing LNCaP cells (NKX3.1 AR target gene): plus 0.1 nM R1881, NKX3.1 gene; for B7 = Relative antagonist activity (plus 0.1 nM R1881) of test compounds (20 μM) in AR overexpressing LNCaP cells (PSA AR target gene): plus 0.1 nM R1881, PSA gene
Description: Real-Time PCR (CRPC model of AR overexpressing prostate cancer cells, Table 2, B4-B7). LNCaP-AR (AR overexpressing cells) cells were seeded in 12-well plates in RPMI 1640 (8% charcoal-stripped fetal calf serum (CFS)). […] AR target gene transcription (PSA, NKX3.1, FKBP5) was assessed by realtime PCR.
For B4-B7, scoring system is based on the relative AR target gene agonist/antagonist activity of test compounds when compared to benchmark compounds enzalutamide or bicalutamide. […] The lack of agonist activity is desirable for therapies intended to treat CRPC. For B4 and B6, a score of 1 indicates less agonism (highly desired activity) than benchmark compound enzalutamide, a score of 2 indicates equal agonism to enzalutamide (desirable), a score of 3 indicates agonism between enzalutamide and bicalutamide (less desirable activity), a score of 4 indicates equal agonism to bicalutamide (liability), and a score of 5 indicates higher agonism than bicalutamide (liability). For B5 and B7 a score of 1 indicates higher antagonist efficacy (highly desired activity) than benchmark compound enzalutamide, a score of 2 indicates equal antagonist efficacy to enzalutamide (desirable), a score of 3 indicates antagonist efficacy between enzalutamide and bicalutamide (less desirable activity), a score of 4 indicates antagonist efficacy equal to bicalutamide (liability), and a score of 5 indicates antagonist efficacy worse than bicalutamide (liability) For B9, Compounds that degrade AR (greater than 50% degradation at 10 μM) are indicated.

O=C1CCCC2=C1C(c1ccc([N+](=O)[O-])cc1)c1c(ccc3ccccc13)N2 (stereo not drawn) [Compound A1, 12-(4-nitrophenyl)-8,9,10,12-tetrahydrobenzo[a]acridin-11(7H)-one]
B4 = Relative agonist activity (no R1881) of test compounds (20 μM) in AR overexpressing LNCaP cells (NKX3.1 AR target gene): 1 | B6 Relative agonist activity (no R1881) of test compounds (20 μM) in AR overexpressing LNCaP cells (PSA AR target gene): 1 | B5 = Relative antagonist activity (plus 0.1 nM R1881) of test compounds (20 μM) in AR overexpressing LNCaP cells (NKX3.1 AR target gene): 2 | B7 = Relative antagonist activity (plus 0.1 nM R1881) of test compounds (20 μM) in AR overexpressing LNCaP cells (PSA AR target gene): 2

CC1CC(=O)C2=C(C1)Nc1ccc3ccccc3c1C2c1ccc(F)cc1 (stereo not drawn) [Compound A4]
B4 = Relative agonist activity (no R1881) of test compounds (20 μM) in AR overexpressing LNCaP cells (NKX3.1 AR target gene): 1 | B6 Relative agonist activity (no R1881) of test compounds (20 μM) in AR overexpressing LNCaP cells (PSA AR target gene): 1 | B5 = Relative antagonist activity (plus 0.1 nM R1881) of test compounds (20 μM) in AR overexpressing LNCaP cells (NKX3.1 AR target gene): 1 | B7 = Relative antagonist activity (plus 0.1 nM R1881) of test compounds (20 μM) in AR overexpressing LNCaP cells (PSA AR target gene): 1

O=C1CCCC2=C1Nc1ccc3ccccc3c1C2c1ccc([N+](=O)[O-])cc1 (stereo not drawn) [Compound A10]
B4 = Relative agonist activity (no R1881) of test compounds (20 μM) in AR overexpressing LNCaP cells (NKX3.1 AR target gene): 2 | B6 Relative agonist activity (no R1881) of test compounds (20 μM) in AR overexpressing LNCaP cells (PSA AR target gene): 1 | B5 = Relative antagonist activity (plus 0.1 nM R1881) of test compounds (20 μM) in AR overexpressing LNCaP cells (NKX3.1 AR target gene): 2 | B7 = Relative antagonist activity (plus 0.1 nM R1881) of test compounds (20 μM) in AR overexpressing LNCaP cells (PSA AR target gene): 1
